How the values were obtained:
[1] = test system: human epidermoid carcinoma cells (A431); experiment: MTT cell viability assay, A431; type: cell-based
From the text: (§1) The immortalized human keratinocytes (HaCaT) were from Innoprot.

SVT2 cells [2] = experiment: Cellular Pt uptake by ICP-MS, SVT2; type: cell-based, murine; settings: SVT2, 9.8 μM (IC50), 48 h, mean ± S.E.
Experimental: (§2) In particular, SVT2 and A431 were incubated for 48 h with 1-Me,Me and 1-Oct,Me, using the IC50 value concentrations. At the end of incubation, uptake and cell death mechanisms were evaluated. […] Finally, apoptosis was investigated by Western blot analyses using specific antibodies against pro-caspases 9 and 3.
To study the uptake of the complexes, SVT2 and A431 were incubated for 48 h in the presence of 1-Me,Me and 1-Oct,Me, respectively, at their IC50 concentrations. At the end of incubation, Pt determination was performed by inductively coupled plasma mass spectrometry (ICP-MS, Aurora M90; Bruker, Ettlingen/Leipzig, Germany) in the “Normal Sensitivity” mode. Calibration curves for the quantification of Pt ranged from 0.1 to 100 μg/L and were constructed daily by the analysis of the standard solutions prepared immediately before analysis. All standards used for analysis were prepared in HNO3 solution (2%, v/v). The internal standards were ^89Y and ^115In in both the calibration curve and sample analyses. The linearity was acceptable with an R^2 value greater than 0.9996. The treatment of the cells involved a wet digestion: after centrifugation, cell samples were wet digested with 1 mL of ultrapure HNO3 (67–69%, v/v). The mixture was gently boiled over a water bath (90 °C) for 3 h until a clear solution was obtained. […]

SVT2 cells [3] = experiment: Western blot of pro-caspases 9 and 3, SVT2; type: cell-based, murine; settings: SVT2, 9.8 μM, 48 h
Experimental: as §2
The SVT2 were seeded on six-well plates at a density of 2.5 × 10^5 cells/well, whereas A431 was seeded at a density of 3 × 10^5 cells/well. After 24 h, cells were treated with 9.8 μM of 1-Me,Me or 2.3 μM 1-Oct,Me. After 48 h of incubation, Western blot analyses were performed by using pro-caspase 9 (Cell Signaling Technology, Danvers, MA, USA) and pro-caspase 3 (Abcam, Cambridge, MA, USA) antibodies, as reported by Del Giudice et al. Protein intensity levels were normalized using β-actin (Sigma-Aldrich, St. Louis, MO, USA). The chemiluminescence detection system was purchased from Bio-Rad (Hercules, CA, USA).

[4] = test system: immortalized human keratinocytes (HaCaT); experiment: MTT cell viability assay, HaCaT; type: cell-based; settings: 48 h incubation
From the text: as §1

[5] = test system: murine fibroblast BALB/c-3T3 transformed with the SV40 virus (SVT2); experiment: MTT cell viability assay, SVT2; type: cell-based
From the text: as §1

Calf thymus DNA = experiment: Ethidium bromide displacement DNA binding assay; settings: 0.05 M ammonium acetate pH 7.5, titration with complex
From the text: The interaction of Pt-based drugs with biological macromolecules deeply affects their biological activity. DNA represents a target for this kind of metallodrug, while proteins are considered both as carriers and targets. To obtain information on the reactivity of the synthesised Pt compounds with DNA, fluorescence intercalation displacement assays have been performed using ethidium bromide (EB) as the DNA intercalator. When bound to DNA, EB has an emission fluorescence of significant intensity. On the other hand, when it is displaced by a competitive DNA-binding molecule, it undergoes quenching by water molecules. Thus, if a molecule binds DNA by displacing EB, a significant reduction in the fluorescence intensity of the EB-DNA complex will be observed.
The ethidium bromide (EB) displacement assay was performed on a HORIBA FluoroMax-4 spectrofluorometer equipped with a thermostat bath. Calf thymus DNA was incubated with EB in 0.05 M of ammonium acetate at pH 7.5, at a DNA:EB molar ratio of 1:5 for 30 min in the dark at room temperature. Then, the fluorescence quenching of this complex was evaluated by adding to it increasing amounts of Pt compounds dissolved in DMSO (20 mM). Samples were equilibrated for 5 min before collecting each spectrum. […]

[6] = test system: immortalized murine fibroblasts (BALB/c-3T3); settings: read-out: IC50 BALB-c/3T3; 48 h incubation, MTT
Experimental: To evaluate their biological activity, the effects of the four complexes on cell viability were evaluated in eukaryotic cell models. For this purpose, experiments were performed on two cancer cell lines, i.e., human epidermoid carcinoma cells (A431) and murine fibroblast BALB/c-3T3 transformed with the SV40 virus (SVT2), and on two non-cancer cell lines, i.e., immortalized human keratinocytes (HaCaT) and immortalized murine fibroblasts (BALB/c-3T3). Cells were incubated with increasing concentrations of 1,Me-Me, 1,Oct-Me, 1,Me-Oct, and 1,Oct-Oct (from 0.1 to 50 μM). After 48 h of incubation, cytotoxicity was determined by MTT assay and cell survival was expressed as the percentage of viable cells in the presence of each complex compared with that of the untreated cells (Figure S19).
The immortalized human keratinocytes (HaCaT) were from Innoprot. Human The A431 epidermoid carcinoma, murine BALB/c-3T3, and SVT2 fibroblasts were from ATCC. Cells were cultured in Dulbecco’s modified Eagle’s medium (DMEM) (Sigma-Aldrich, St. Louis, MO, USA), supplemented with 10% foetal bovine serum (HyClone), 2 mM L-glutamine, and antibiotics, all from Sigma-Aldrich, under a 5% CO2-humidified atmosphere at 37 °C. To test the effects of the complexes on cell viability, cells were seeded at a density of 2.5 × 10^3 cells per well in 96-well plates. After 24 h, cells were incubated with increasing concentrations (from 0.1 to 50 μM) of the four complexes. After 48 h, cell viability was assessed by the MTT assay, as previously reported in [43]. Cell viability was expressed as the percentage of viable cells in the presence of the Pt complexes compared to the controls, represented by untreated cells and cells supplemented with identical volumes of DMSO. Each sample was tested in three independent analyses, each carried out in triplicate.

Platinum(1+), (2,9-dimethyl-1,10-phenanthroline- N1,N10)(η2-ethene)methyl[1,3-dihydro-1,3-dimethyl-4-[1-[2,3,4,6-tetrakis-O-(acetyl)-β-D-glucopyranosyl]-1H-1,2,3-triazol-4-yl]-2H-imidazol-2-ylidene], 1,1,1-trifluoromethanesulfonate [1-Me,Me]
IC50 ([1]; 48 h incubation, MTT): 20 ± 2 µM | SI (selectivity index) ([1]; ratio IC50 HaCaT / IC50 A431): 0.42 | Pt uptake (SVT2 cells [2]): 0.772 ± 0.010 Pt ng/10^6 cells | pro-caspases 9 and 3 levels (SVT2 cells [3]): significant decrease in pro-caspases 9 and 3 levels | IC50 [4]: 8.4 ± 1.7 µM | IC50 ([5]; 48 h incubation, MTT): 9.8 ± 0.3 µM | SI (selectivity index) ([5]; ratio IC50 BALB-c/3T3 / IC50 SVT2): 2.65 | fluorescence intensity of EB-DNA complex (Calf thymus DNA): significant reduction in fluorescence intensity | IC50 [6]: 26 ± 1 µM

Source: article PMC9916762, “Impact of Hydrophobic Chains in Five-Coordinate Glucoconjugate Pt(II) Anticancer Agents” (International Journal of Molecular Sciences, 2023)
